{
  "source": "paper PMC7156458",
  "about": "“Synthetic biology based construction of biological activity-related library of fungal decalin-containing diterpenoid pyrones” (Nature Communications, 2020)",
  "assay_type_in_all_cases": "cell-based",
  "key": {"[1]": {"assay": "cytotoxicity in Drosophila DL1 cells", "details": "Drosophila, DL1 cells", "experimental": "(§1) We screened the DDPs on the Drosophila assay system for cytotoxicity, inhibitory activity of innate immune signalling and insecticidal activity. The cytotoxicity of the DDPs was evaluated using two cell lines, embryonic macrophage-derived DL1 cells[58]–[60] and larval blood cell-derived l(2)mbn cells, and their IC50 values are listed in Supplementary Table 23."}, "DL1 cells": {"system": "DL1 cells", "assay": "cytotoxicity in Drosophila DL1 cells", "details": "DL1 cells; for % viability, viability 2: replicate 2, relative to DMSO 1%; for % viability, viability 1: replicate 1, relative to DMSO 1%; for IC50: cytotoxicity", "experimental": "as §1"}, "[2]": {"assay": "cytotoxicity in Drosophila l(2)mbn cells", "details": "Drosophila", "experimental": "as §1"}, "l(2)mbn cells": {"system": "l(2)mbn cells", "assay": "cytotoxicity in Drosophila l(2)mbn cells", "details": "for Luminescence Raw1: replicate 1; for Luminescence Raw2: replicate 2; for % viability, viability 2: replicate 2, relative to DMSO 1%; for % viability, viability 1: replicate 1, relative to DMSO 1%", "experimental": "as §1"}, "[3]": {"system": "human immunodeficiency virus-1 (HIV-1)", "assay": "anti-HIV MAGI assay", "details": "Human immunodeficiency virus 1, MAGI, anti-HIV", "source_text": "We examined the inhibitory activities of DDPs against various species of bacteria (both gram-negative and gram-positive bacteria), fungi and viruses. […] In contrast, preliminary screening of the DDPs for anti-viral agents with hepatitis B virus (HBV), measles virus (MV), Epstein-Barr virus (EBV), herpes simplex virus (HSV) and human immunodeficiency virus-1 (HIV-1) indicated their selective inhibition of HIV."}, "[4]": {"details": "replicate 1, relative to DMSO 1%, read-out: % viability, viability 1"}, "[5]": {"details": "replicate 2, relative to DMSO 1%, read-out: % viability, viability 2"}},
  "note": "Where two headings read alike, the source gives them in different places.",
  "data": [
    {"compound": "C=C1CCC2C(C)(CCC=C(C)C)C(O)CCC2(C)C1Cc1c(OC)oc(C)c(C)c1=O", "note": "(stereo not shown) [Compound 11]", "values": [
      {"measurement": "viability at 0.04 µM", "setting": "[1]; [4]", "value": 216, "unit": "%"},
      {"measurement": "viability at 0.04 µM", "setting": "[1]; [5]", "value": 202, "unit": "%"},
      {"measurement": "viability at 0.2 µM", "setting": "[1]; 0.2 µM, replicate 1, relative to DMSO 1%, read-out: % viability, viability 1", "value": 191, "unit": "%"},
      {"measurement": "viability at 10 µM", "setting": "[1]; [4]", "value": 20.5, "unit": "%"},
      {"measurement": "viability at 10 µM", "setting": "[1]; [5]", "value": 22.2, "unit": "%"},
      {"measurement": "viability at 20 µM", "setting": "[1]; [4]", "value": 22.4, "unit": "%"},
      {"measurement": "viability at 20 µM", "setting": "[1]; [5]", "value": 22.4, "unit": "%"},
      {"measurement": "Luminescence Raw1", "setting": "DL1 cells; 0.04 µM, replicate 1", "value": 2962736},
      {"measurement": "Luminescence Raw2", "setting": "DL1 cells; 0.04 µM, replicate 2", "value": 2763628},
      {"measurement": "Luminescence Raw1", "setting": "DL1 cells; 0.2 µM, replicate 1", "value": 2626203},
      {"measurement": "Luminescence Raw2", "setting": "DL1 cells; 0.2 µM, replicate 2", "value": 2499962},
      {"measurement": "% viability, viability 2", "setting": "DL1 cells; 0.2 µM", "value": 182.283, "unit": "%"},
      {"measurement": "Luminescence Raw1", "setting": "DL1 cells; 1 µM, replicate 1", "value": 427059},
      {"measurement": "% viability, viability 1", "setting": "DL1 cells; 1 µM", "value": 31.1387, "unit": "%"},
      {"measurement": "Luminescence Raw2", "setting": "DL1 cells; 1 µM, replicate 2", "value": 482949},
      {"measurement": "% viability, viability 2", "setting": "DL1 cells; 1 µM", "value": 35.2139, "unit": "%"},
      {"measurement": "Luminescence Raw1", "setting": "DL1 cells; 4 µM, replicate 1", "value": 281027},
      {"measurement": "% viability, viability 1", "setting": "DL1 cells; 4 µM", "value": 20.4909, "unit": "%"},
      {"measurement": "Luminescence Raw2", "setting": "DL1 cells; 4 µM, replicate 2", "value": 305186},
      {"measurement": "% viability, viability 2", "setting": "DL1 cells; 4 µM", "value": 22.2524, "unit": "%"},
      {"measurement": "Luminescence Raw1", "setting": "DL1 cells; 10 µM, replicate 1", "value": 281749},
      {"measurement": "Luminescence Raw2", "setting": "DL1 cells; 10 µM, replicate 2", "value": 304825},
      {"measurement": "Luminescence Raw1", "setting": "DL1 cells; 20 µM, replicate 1", "value": 307710},
      {"measurement": "Luminescence Raw2", "setting": "DL1 cells; 20 µM, replicate 2", "value": 306988},
      {"measurement": "IC50", "setting": "DL1 cells; average±SEM", "value": "400 ± 20", "unit": "nM"},
      {"measurement": "IC50", "setting": "DL1 cells; read-out: IC50 (1), replicate 1", "value": 380, "unit": "nM"},
      {"measurement": "IC50", "setting": "DL1 cells; read-out: IC50 (2), replicate 2", "value": 414, "unit": "nM"},
      {"measurement": "IC50", "setting": "DL1 cells; read-out: IC50 Average, average of two replicates", "value": 397, "unit": "nM"},
      {"measurement": "viability at 0.04 µM", "setting": "[2]; 0.04 µM, replicate 1, relative to DMSO 1%, read-out: % viability, viability 1", "value": 78.2, "unit": "%"},
      {"measurement": "viability at 0.2 µM", "setting": "[2]; [4]", "value": 91.6, "unit": "%"},
      {"measurement": "viability at 0.2 µM", "setting": "[2]; [5]", "value": 70.9, "unit": "%"},
      {"measurement": "viability at 20 µM", "setting": "[2]; [4]", "value": 2.02, "unit": "%"},
      {"measurement": "viability at 20 µM", "setting": "[2]; [5]", "value": 2.72, "unit": "%"},
      {"measurement": "Luminescence Raw1", "setting": "l(2)mbn cells; 0.04 µM", "value": 4909467},
      {"measurement": "Luminescence Raw2", "setting": "l(2)mbn cells; 0.04 µM", "value": 3629794},
      {"measurement": "% viability, viability 2", "setting": "l(2)mbn cells; 0.04 µM", "value": 57.8063, "unit": "%"},
      {"measurement": "Luminescence Raw1", "setting": "l(2)mbn cells; 0.2 µM", "value": 5752008},
      {"measurement": "Luminescence Raw2", "setting": "l(2)mbn cells; 0.2 µM", "value": 4449089},
      {"measurement": "Luminescence Raw1", "setting": "l(2)mbn cells; 1 µM", "value": 2597064},
      {"measurement": "% viability, viability 1", "setting": "l(2)mbn cells; 1 µM", "value": 41.3596, "unit": "%"},
      {"measurement": "Luminescence Raw2", "setting": "l(2)mbn cells; 1 µM", "value": 1297263},
      {"measurement": "% viability, viability 2", "setting": "l(2)mbn cells; 1 µM", "value": 20.6596, "unit": "%"},
      {"measurement": "Luminescence Raw1", "setting": "l(2)mbn cells; 4 µM", "value": 133995},
      {"measurement": "% viability, viability 1", "setting": "l(2)mbn cells; 4 µM", "value": 2.134, "unit": "%"},
      {"measurement": "Luminescence Raw2", "setting": "l(2)mbn cells; 4 µM", "value": 142288},
      {"measurement": "% viability, viability 2", "setting": "l(2)mbn cells; 4 µM", "value": 2.266, "unit": "%"},
      {"measurement": "Luminescence Raw1", "setting": "l(2)mbn cells; 10 µM", "value": 107674},
      {"measurement": "% viability, viability 1", "setting": "l(2)mbn cells; 10 µM", "value": 1.715, "unit": "%"},
      {"measurement": "Luminescence Raw2", "setting": "l(2)mbn cells; 10 µM", "value": 99742},
      {"measurement": "% viability, viability 2", "setting": "l(2)mbn cells; 10 µM", "value": 1.588, "unit": "%"},
      {"measurement": "Luminescence Raw1", "setting": "l(2)mbn cells; 20 µM", "value": 126784},
      {"measurement": "Luminescence Raw2", "setting": "l(2)mbn cells; 20 µM", "value": 170772},
      {"measurement": "IC50", "setting": "l(2)mbn cells; cytotoxicity, average±SEM", "value": "470 ± 210", "unit": "nM"},
      {"measurement": "IC50", "setting": "l(2)mbn cells; read-out: IC50 (1), cytotoxicity, replicate 1", "value": 681, "unit": "nM"},
      {"measurement": "IC50", "setting": "l(2)mbn cells; read-out: IC50 (2), cytotoxicity, replicate 2", "value": 259, "unit": "nM"},
      {"measurement": "IC50", "setting": "l(2)mbn cells; read-out: IC50 Average, cytotoxicity, average of two replicates", "value": 470, "unit": "nM"},
      {"measurement": "EC50", "setting": "[3]; MAGI assay, read-out: EC50", "value": "< 200", "unit": "nM"},
      {"measurement": "EC50", "setting": "[3]; single determinations, read-out: Efficacy (EC50)", "value": "> 10000", "unit": "nM"}
    ]}
  ]
}
